Data published in ChEMBL document CHEMBL1154710, “Synthesis, anti-inflammatory and anticancer activity evaluation of some novel acridine derivatives” (2010).

Columns and labels:
Format in all cases: functional
IMR-32 = assay: Growth inhibition of human IMR32 cells at 10 uM after 48 hrs by SRB assay; conditions: IMR-32, 48 h, read-out: GI
HEp-2 = assay: Growth inhibition of human Hep2 cells at 10 uM after 48 hrs by SRB assay; conditions: HEp-2, 48 h, read-out: GI
Rattus norvegicus = assay: Antiinflammatory activity in albino Charles-Foster rat assessed as inhibition of carrageenan-induced paw oedema at 50 mg/kg, po administered 30 mins before carrageenan challenge […] after 1-3 hrs relative to control; parameters: scale not given: the % may be the effect or the level left
COLO 205 = assay: Growth inhibition of human COLO205 cells at 10 uM after 48 hrs by SRB assay; conditions: COLO 205, 48 h, read-out: GI
HCT-15 = assay: Growth inhibition of human HCT15 cells at 10 uM after 48 hrs by SRB assay; conditions: HCT-15, 48 h, read-out: GI
MCF7 = assay: Growth inhibition of human MCF7 cells at 10 uM after 48 hrs by SRB assay; conditions: MCF7, 48 h, read-out: GI
[1] = Growth inhibition of human 502713 cells at 10 uM after 48 hrs by SRB assay; conditions: Homo sapiens, 502713, 48 h; read-out: GI
A549 = assay: Growth inhibition of human A549 cells at 10 uM after 48 hrs by SRB assay; conditions: A549, 48 h, read-out: GI
DU-145 = assay: Growth inhibition of human DU145 cells at 10 uM after 48 hrs by SRB assay; conditions: DU-145, 48 h, read-out: GI
PC-3 = assay: Growth inhibition of human PC3 cells at 10 uM after 48 hrs by SRB assay; conditions: PC-3, 48 h, read-out: GI
OVCAR-5 = assay: Growth inhibition of human OVCAR5 cells at 10 uM after 48 hrs by SRB assay; conditions: OVCAR-5, 48 h, read-out: GI

Row | SMILES | inhibition of growth at 10 µM (IMR-32) | inhibition of growth at 10 µM (HEp-2) | Activity (Rattus norvegicus) | inhibition of growth at 10 µM (COLO 205) | inhibition of growth at 10 µM (HCT-15) | inhibition of growth at 10 µM (MCF7) | inhibition of growth at 10 µM [1] | inhibition of growth at 10 µM (A549) | inhibition of growth at 10 µM (DU-145) | inhibition of growth at 10 µM (PC-3) | inhibition of growth at 10 µM (OVCAR-5)
1 | COc1ccc2nc3ccccc3c(NCc3ccco3)c2c1 | 95% | 56% | 22.96% | 88% | 80% | 44% | 65% | 35% |  |  | 
2 | Cc1cccc2c(NCCc3cccs3)c3ccccc3nc12 |  | 41% | 33.09% | 79% |  | 73% |  |  | 41% | 52% | 6%
3 | COc1cccc2c(NCC3CCCO3)c3ccccc3nc12 (racemic) | 69% | 34% | 0% | 66% | 64% | 52% | 60% | 56% |  |  | 
4 | Cc1cccc2c(NC(=S)NCC3CCCO3)c3ccccc3nc12 (racemic) | 21% | 14% | 25.35% | 71% |  | 99% | 95% | 96% |  |  | 
5 | Cc1cccc2c(NCC3CCCO3)c3ccccc3nc12 (racemic) |  | 18% | 34.02% | 46% |  | 45% |  |  | 17% | 61% | 54%
6 | COc1ccc2nc3ccccc3c(NC(=S)NCC3CCCO3)c2c1 (racemic) | 27% | 8% | 29.57% | 20% | 41% | 8% | 21% | 24% |  |  | 
7 | COc1ccc2nc3ccccc3c(NCC3CCCO3)c2c1 (racemic) |  | 11% | 20.16% | 61% |  | 42% |  |  | 9% | 37% | 41%
8 | COc1cccc2c1C(=O)c1c(O)c3c(c(O)c1C2=O)C[C@@](O)(C(=O)CO)C[C@@H]3O[C@H]1C[C@H](N)[C@H](O)[C@H](C)O1 [DOXORUBICIN] | 86% | 55% |  | 34% | 93% | 48% | 28% | 44% |  |  | 
9 | O=c1[nH]cc(F)c(=O)[nH]1 [FLUOROURACIL] | 58% | 29% |  | 25% | 29% | 0% | 40% | 0% |  |  | 
10 | CC(C)Cc1ccc(C(C)C(=O)O)cc1 (stereo not given) [IBUPROFEN] |  |  | 39% |  |  |  |  |  |  |  | 
11 | CO[C@@]12[C@H](COC(N)=O)C3=C(C(=O)C(C)=C(N)C3=O)N1C[C@@H]1N[C@@H]12 [MITOMYCIN] | 85% | 58% |  | 4% | 25% |  | 44% | 40% |  |  | 
12 | CC(=O)O[C@H]1C(=O)[C@@]2(C)[C@H]([C@H](OC(=O)c3ccccc3)[C@]3(O)C[C@H](OC(=O)[C@H](O)[C@@H](NC(=O)c4ccccc4)c4ccccc4)C(C)=C1C3(C)C)[C@]1(OC(C)=O)CO[C@@H]1C[C@@H]2O [PACLITAXEL] | 58% | 75% |  | 61% | 84% | 65% | 58% | 51% |  |  | 
